Experiments:
[1] = target: Poly [ADP-ribose] polymerase 1 (Homo sapiens, UniProt P09874); assay: Inhibition of PARP1
[2] = system: HeLa; assay: Ratio of GI50 for methyl methane sulphonate to drug in human HeLa B cells; format: functional

Sequence of Poly [ADP-ribose] polymerase 1 (P09874 whole entry): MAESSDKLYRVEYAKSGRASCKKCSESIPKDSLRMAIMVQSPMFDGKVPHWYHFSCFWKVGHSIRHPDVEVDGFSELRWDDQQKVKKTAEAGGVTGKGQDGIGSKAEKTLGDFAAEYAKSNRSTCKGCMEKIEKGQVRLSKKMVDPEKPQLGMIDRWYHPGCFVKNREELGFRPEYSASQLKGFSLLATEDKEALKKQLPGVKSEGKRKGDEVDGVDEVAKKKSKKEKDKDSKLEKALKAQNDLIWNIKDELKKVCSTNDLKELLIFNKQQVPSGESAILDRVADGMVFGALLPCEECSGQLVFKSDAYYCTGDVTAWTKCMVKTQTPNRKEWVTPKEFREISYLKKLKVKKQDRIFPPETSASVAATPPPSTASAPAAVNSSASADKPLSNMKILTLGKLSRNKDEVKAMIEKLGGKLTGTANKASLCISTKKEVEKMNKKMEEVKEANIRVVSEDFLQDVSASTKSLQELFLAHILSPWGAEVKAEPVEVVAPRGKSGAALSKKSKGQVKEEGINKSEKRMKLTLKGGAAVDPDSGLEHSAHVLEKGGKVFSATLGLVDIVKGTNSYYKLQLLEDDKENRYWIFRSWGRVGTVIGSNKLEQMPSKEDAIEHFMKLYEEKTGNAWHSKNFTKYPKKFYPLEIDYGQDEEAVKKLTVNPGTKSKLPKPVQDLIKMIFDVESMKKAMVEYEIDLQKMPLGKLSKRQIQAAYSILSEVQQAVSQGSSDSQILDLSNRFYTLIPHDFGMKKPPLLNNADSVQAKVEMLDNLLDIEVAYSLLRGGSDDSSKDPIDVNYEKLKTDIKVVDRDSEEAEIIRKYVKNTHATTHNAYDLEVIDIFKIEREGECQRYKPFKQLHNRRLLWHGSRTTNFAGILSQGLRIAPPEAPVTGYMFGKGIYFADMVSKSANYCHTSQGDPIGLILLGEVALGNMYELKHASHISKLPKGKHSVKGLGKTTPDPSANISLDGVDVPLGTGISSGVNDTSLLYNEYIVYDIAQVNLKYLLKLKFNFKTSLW

Structure (SMILES) | IC50 [1] [nM] | PF50 [2]
O=C(c1cccc(Cc2n[nH]c(=O)c3ccccc23)c1)N1CCNCC1 | 2 | 2.7
NC(=O)c1ccccc1OCc1ccc(F)c(C(=O)N2CCNCC2)c1 | 61 | 1.4
NC(=O)c1cc(F)ccc1OCc1ccc(F)c(C(=O)N2CCNCC2)c1 | 29 | 1.6
NC(=O)c1cc(F)c(F)cc1OCc1ccc(F)c(C(=O)N2CCNCC2)c1 | 240 | 1.08
CC(Oc1ccccc1)C(=O)N1CCN(C(=O)c2cc(CCOc3ccccc3C(N)=O)ccc2F)CC1 (stereo unspecified) |  | 1.5
NC(=O)c1c(F)ccc(F)c1OCc1ccc(F)c(C(=O)N2CCNCC2)c1 | > 10000 | 
CC(Oc1ccccc1)C(=O)N1CCN(C(=O)c2cc(COc3ccc(F)cc3C(N)=O)ccc2F)CC1 (stereo unspecified) | 14 | 1.12
NC(=O)c1cc(F)cc(F)c1OCc1ccc(F)c(C(=O)N2CCNCC2)c1 | 1500 | 0.9
NC(=O)c1ccccc1OCc1ccc(F)c(C(=O)N2CCN(C(=O)C3CCCC3)CC2)c1 | 24 | 1.96
CC(Oc1ccccc1)C(=O)N1CCN(C(=O)c2cccc(Cc3n[nH]c(=O)c4ccccc34)c2)CC1 (stereo unspecified) | 5 | 29.7
NC(=O)c1ccccc1OCc1cccc(C(=O)N2CCNCC2)c1 | 18 | 1.3
CC(Oc1ccccc1)C(=O)N1CCN(C(=O)c2cc(COc3ccccc3C(N)=O)ccc2F)CC1 (stereo unspecified) | 50 | 3.7
NC(=O)c1ccccc1OCCc1cccc(C(=O)N2CCNCC2)c1 | 970 | 1.06
NC(=O)c1ccccc1OCc1cccc(C(=O)N2CCN(C(=O)C3CCCC3)CC2)c1 | 188 | 1.1
NC(=O)c1ccccc1OCCc1cccc(C(=O)N2CCN(C(=O)C3CCCC3)CC2)c1 | 200 | 
O=C(c1cccc(Cc2n[nH]c(=O)c3ccccc23)c1)N1CCN(C(=O)C2CCCC2)CC1 | 8 | 4.8
NC(=O)c1ccc(F)cc1OCc1ccc(F)c(C(=O)N2CCNCC2)c1 | 250 | 1.2
NC(=O)c1ccccc1OCCc1ccc(F)c(C(=O)N2CCNCC2)c1 | > 10000 | 
NC(=O)c1cc(F)ccc1OCc1ccc(F)c(C(=O)N2CCN(C(=O)C3CCCC3)CC2)c1 |  | 1.5
CC(Oc1ccccc1)C(=O)N1CCN(C(=O)c2cccc(COc3ccccc3C(N)=O)c2)CC1 (stereo unspecified) | 36 | 2
CC(Oc1ccccc1)C(=O)N1CCN(C(=O)c2cccc(CCOc3ccccc3C(N)=O)c2)CC1 (stereo unspecified) | 200 | 
